Reference: patent US6770638B2, “Tetrahydroindolone and purine derivatives linked to arylpiperazines” (Spectrum Pharmaceuticals, Inc., priority 2001, dated 2004)

Columns and labels:
Caco-2 cells = test: Membrane permeability (Papp) across Caco-2 cell monolayers; type: in vitro ADME; details: Caco-2; for EFFLUX LIMITED: Yes/No; for PERMEABILITY: class in words (High/Low)
[1] = as above; type: in vitro ADME; details: human, Caco-2 monolayer; for Papp A→B: apical to basolateral, read-out: Papp (cm/s × 10^6) AP-to-BL; for Papp B→A: basolateral to apical, read-out: Papp (cm/s × 10^6) BL-to-AP; for efflux ratio: read-out: RATIO Papp^B-A/Papp^A-B
male C-57 mice = test: PCP disruption of pre-pulse inhibition of the acoustic startle response; type: in vivo; details: route not given (method: PO or SC); PCP 5 mg/kg IP
Description: The non-competitive NMDA receptor antagonist phencyclidine (PCP) reduces pre-pulse inhibition (PPI) of the acoustic startle response in rodents. Identifying compounds that improve the PCP-induced deficits in pre-pulse inhibition may provide insight into therapeutic strategies for treating schizophrenia. For testing of PPI, male C-57 mice were assigned to five dose groups of eight animals per group, and vehicle or test compound were administered orally (PO) or subcutaneously (SC) 20 minutes prior to intraperitoneal (IP) administration of vehicle or PCP (5 mg/kg). Ten minutes following PCP administration, the mice were placed into Hamilton-Kinder startle chambers and evaluation of pre-pulse inhibition procedure was performed. Following a five-minute acclimatization period with background white noise (65 db), mice were exposed to five different trial types. Trials were presented […] in a quasi-random order, with randomized 5 to 25 second inter-trial intervals. Trials were: stimulus only trial (120 db white noise, 50 ms stimulus); two different prepulse+pulse trials in which a 20 ms 5 db, or 10 db stimuli above a 65 db background preceded the 120 db pulse by 120 ms; a 10 db prepulse without a 120 db pulse; and a no stimulus trial, in which only the background noise was presented.

mice = test: Conditioned avoidance responding (CAR, active avoidance); type: in vivo; details: SC to mice, 20 minutes before test session
Description: Training: Consists of 20 trials with variable inter-trial intervals (Trained to 80% Avoidance Criteria). After a one-minute acclimation period, the house light and an acoustic 90 dB tone (conditioned stimuli) are presented. A response (crossing to dark compartment) within 5 seconds ends the trial and trial is recorded as avoidance response (CAR). […] To avoid shock, animals learn to move from the lighted side of the -chamber to the dark side when the cue is presented (avoidance) or moved when the shock is administered (escape). Testing: Vehicle or test compounds are administered S.C. 20 minutes before the test session. (Checking for disruption of cognition and attention)

| EFFLUX LIMITED (Caco-2 cells) | PERMEABILITY (Caco-2 cells) | Papp A→B [1] [nm/s] | efflux ratio [1] | SMILES | Papp B→A [1] [nm/s] | PCP Disruption of Pre-pulse Inhibition, result in words (male C-57 mice) | Conditioned Avoidance Responding, overall effect / effect on escape or avoidance (mice) | Conditioned Avoidance Responding, effect on latency (mice) | Conditioned Avoidance Responding, effect on avoidance (mice) |
| --- | --- | --- | --- | --- | --- | --- | --- | --- | --- |
| No | High | 215 ± 29 | 0.41 | O=C1CCCc2c1ccn2CCCN1CCN(c2cccc(C(F)(F)F)c2)CC1 [NEO-356, 1-{3-[4-(3-Trifluoromethylphenyl)piperazin-1-yl]propyl}-1,5,6,7-tetrahydroindol-4-one] | 88 ± 3 | No reversal | No effect | – | – |
| No | High | 180 ± 7 | 0.75 | O=C1CCCc2c1ccn2CCCN1CCN(c2cccc(Cl)c2)CC1 [NEO-363, 1-{3-[4-(3-Chlorophenyl)piperazine-1-yl]propyl}-1,5,6,7-tetrahydroindol-4-one] | 131 ± 11 | – | No effect | – | – |
| No | High | 204 ± 18 | 0.43 | O=C1CCCc2c1ccn2CCN1CCN(c2cccc(Cl)c2)CC1 [NEO-376, 1-{2-[4-(3-Chloro-phenyl)-piperazin-1-yl]-ethyl}-1,5,6,7-tetrahydroindol-4-one] | 94 ± 3 | – | No effect on escape or avoidance | significant increase in latency | – |
| No | High | 329 ± 96 | 0.77 | O=C1CCCc2c1ccn2CCCN1CCN(c2ncccn2)CC1 [NEO-381, 1-{3-[4-(2-Pyrimidyl)piperazine-1-yl]propyl}-1,5,6,7-tetrahydroindol-4-one] | 253 ± 7 | No reversal | No effect | – | – |
| No | High | 271 ± 12 | 0.58 | O=C1CCCc2c1ccn2CCCCN1CCN(c2cccc(C(F)(F)F)c2)CC1 [NEO-392, 1-{4-[4-(3-Trifluoromethylphenyl)piperazin-1-yl]-butyl}-1,5,6,7-tetrahydroindol-4-one] | 157 ± 13 | – | – | Significant increase in latency | Significant reduction in avoidance |
| No | High | 173 ± 23 | – | CC(C)NCC(O)COc1cccc2ccccc12 (stereo not shown) [Propranolol, reference compound] | – | – | – | – | – |

| SMILES | EFFLUX LIMITED (Caco-2 cells) | PERMEABILITY (Caco-2 cells) | Papp A→B [1] [nm/s] | efflux ratio [1] | Papp B→A [1] [nm/s] | PCP Disruption of Pre-pulse Inhibition, result in words (male C-57 mice) | Conditioned Avoidance Responding, overall effect / effect on escape or avoidance (mice) | Conditioned Avoidance Responding, effect on latency (mice) | Conditioned Avoidance Responding, effect on avoidance (mice) |
| --- | --- | --- | --- | --- | --- | --- | --- | --- | --- |
| CN1CCN(C2=Nc3cc(Cl)ccc3Nc3ccccc32)CC1 [Clozapine, clozapine, reference compound] | No | High | 153 ± 7 | 0.65 | 74 ± 11 | – | – | – | – |
| O=C1CCCc2c1ccn2CCN1CCN(c2cccc(C(F)(F)F)c2)CC1 [NEO-359, 1-{2-[4-(3-Trifluoromethylphenyl)piperazine-1-yl]ethyl}-1,5,6,7-tetrahydroindol-4-one] | No | High | 240 ± 39 | 0.32 | 76 ± 5 | No reversal | No effect on escape or avoidance | Significant decrease in latency | – |
| COc1ccccc1N1CCN(CCCn2ccc3c2CCCC3=O)CC1 [NEO-370, 1-{3-[4-(2-Methoxyphenyl)piperazine-1-yl]propyl}-1,5,6,7-tetrahydroindol-4-one] | No | High | 321 ± 81 | 0.67 | 200 ± 34 | – | – | Significant increase in latency | Significant reduction in avoidance |
| COc1ccccc1N1CCN(CCn2ccc3c2CCCC3=O)CC1 [NEO-377, 1-{2-[4-(2-Methoxyphenyl)-piperazin-1-yl]-ethyl}-1,5,6,7-tetrahydroindol-4-one] | No | High | 260 ± 18 | 0.6 | 155 ± 29 | – | – | Significant increase in latency | Significant reduction in avoidance |
| Cc1nc2n(c(=O)c1CCN1CCC(c3noc4cc(F)ccc34)CC1)CCCC2 [Risperidone, risperidone, reference compound] | No | High | 215 ± 2 | – | 140 ± 31 | – | – | Significant increase in latency | Significant reduction in avoidance |
